Assay results as given in PubChem BioAssay AID256 (DTP/NCI, 2004).
Several values for one entry are separate records, joined by “and”; a condition that tells them apart may be missing. Equal values may be shown once. Toxic doses and inconclusive results are not listed.

System: CD2F1 mice, L1210 leukemia ip, survival T/C
Assay: NCI In Vivo Anticancer Drug Screen. Data for tumor model L1210 Leukemia (intraperitoneal) in CD2F1 (CDF1) mice
Details: higher = longer survival
Method in brief: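 Ratio T/C, where T is the treated-group value and C the vehicle-dosed control value, from mice implanted with a transplantable tumor.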

[1] = endpoint: mean survival time, dose: 100.0 mg/kg/injection, schedule: Q04DX003 (ip), vehicle: saline
[2] = endpoint: mean survival time, dose: 200.0 mg/kg/injection, schedule: Q04DX003 (ip), vehicle: saline
[3] = endpoint: mean survival time, dose: 400.0 mg/kg/injection, schedule: Q04DX003 (ip), vehicle: saline
[4] = endpoint: mean survival time, dose: 100.0 mg/kg/injection, schedule: Q04DX003 (ip), vehicle: saline with Tween-80
[5] = endpoint: mean survival time, dose: 10.0 mg/kg/injection, schedule: Q01DX009 (ip), vehicle: saline
[6] = endpoint: mean survival time, dose: 20.0 mg/kg/injection, schedule: Q01DX009 (ip), vehicle: saline
[7] = endpoint: mean survival time, dose: 200.0 mg/kg/injection, schedule: Q04DX003 (ip), vehicle: saline with Tween-80
[8] = endpoint: mean survival time, dose: 100.0 mg/kg/injection, schedule: Q01DX001 (ip), vehicle: saline with Tween-80
[9] = endpoint: mean survival time, dose: 200.0 mg/kg/injection, schedule: Q01DX001 (ip), vehicle: saline with Tween-80
[10] = endpoint: mean survival time, dose: 400.0 mg/kg/injection, schedule: Q01DX001 (ip), vehicle: saline with Tween-80

Q: Which T/C [1] does the source give for `NC(=Nc1ccccc1)Nc1ccccc1` (tested in a mixture with another compound) here?
A: 103 % of control

Q: And the T/C [2]?
A: 97 % of control

Q: And the T/C [3]?
A: 100 % of control

Q: Which T/C (endpoint: median survival time, dose: 50.0 mg/kg/injection, schedule: Q01DX005 (ip), vehicle: saline) does the source give for `CSc1nc2[nH]c(C)cc2c(=O)[nH]1` here?
A: 102 % of control

Q: And the T/C (endpoint: median survival time, dose: 100.0 mg/kg/injection, schedule: Q01DX005 (ip), vehicle: saline)?
A: 95 % of control

Q: And the T/C (endpoint: median survival time, dose: 200.0 mg/kg/injection, schedule: Q01DX005 (ip), vehicle: saline)?
A: 92 % of control

Q: `Cc1cc(N2CCCN(C)CC2)nc(/N=C(\N)Nc2ccc(Cl)c(Cl)c2)n1` was tested. Which T/C [4] did it give?
A: 88 % of control

Q: Which T/C [5] does the source give for `O=S(=O)(O)Sc1ncnc2nc[nH]c12` here?
A: 117 % of control

Q: And the T/C [6]?
A: 112 % of control

Q: And the T/C (endpoint: mean survival time, dose: 320.0 mg/kg/injection, schedule: Q01DX009 (ip), vehicle: saline)?
A: 107 % of control

Q: And the T/C (endpoint: median survival time, dose: 37.5 mg/kg/injection, schedule: Q04DX003 (ip), vehicle: saline)?
A: 119 % of control

Q: And the T/C (endpoint: median survival time, dose: 100.0 mg/kg/injection, schedule: Q01DX009 (ip), vehicle: saline)?
A: 182 % of control

Q: What about the T/C (endpoint: median survival time, dose: 200.0 mg/kg/injection, schedule: Q01DX009 (ip), vehicle: saline) of the same molecule?
A: 154 % of control

Q: What about the T/C (endpoint: median survival time, dose: 300.0 mg/kg/injection, schedule: Q04DX003 (ip), vehicle: saline) of the same molecule?
A: 166 % of control

Q: Which results are given for `Cc1cccnc1N.[Cl-].[Cl-].[Cl-].[Cl-].[Pt+2]`?
A: T/C (endpoint: mean survival time, dose: 21.88 mg/kg/injection, schedule: Q04DX003 (ip), vehicle: saline with Tween-80): 104 % of control; T/C (endpoint: mean survival time, dose: 43.75 mg/kg/injection, schedule: Q04DX003 (ip), vehicle: saline with Tween-80): 110 % of control

Q: For `CCN(CC)Cc1ccccc1COC(=O)c1ccccc1`, which T/C (endpoint: mean survival time, dose: 100.0 mg/kg/injection, schedule: Q04DX002 (ip), vehicle: saline) is on record?
A: 98 % of control

Q: And the T/C (endpoint: mean survival time, dose: 200.0 mg/kg/injection, schedule: Q04DX002 (ip), vehicle: saline)?
A: 111 % of control

Q: What does the source list for `Cc1nc(C)c(CCO)c(=O)[nH]1`?
A: T/C [4]: 97 % of control; T/C [7]: 101 % of control; T/C (endpoint: mean survival time, dose: 400.0 mg/kg/injection, schedule: Q04DX003 (ip), vehicle: saline with Tween-80): 103 % of control

Q: Which T/C (endpoint: mean survival time, dose: 100.0 mg/kg/injection, schedule: Q04DX003 (ip), vehicle: other) does the source give for `OC(c1ccccc1)c1ccccn1` (stereo not given) here?
A: 93 % of control

Q: And the T/C (endpoint: mean survival time, dose: 200.0 mg/kg/injection, schedule: Q04DX003 (ip), vehicle: other)?
A: 98 % of control

Q: What about the T/C (endpoint: mean survival time, dose: 400.0 mg/kg/injection, schedule: Q04DX003 (ip), vehicle: other) of the same molecule?
A: 98 % of control

Q: For `ClCCn1c(CCl)nc2ccccc21`, which T/C [5] is on record?
A: 98 % of control

Q: What about the T/C [6] of the same molecule?
A: 94 % of control

Q: What does the source list for `O=C(O)c1ccccc1Nc1ccc(Br)cc1`?
A: T/C (endpoint: mean survival time, dose: 25.0 mg/kg/injection, schedule: Q04DX003 (ip), vehicle: saline with Tween-80): 95 % of control; T/C (endpoint: mean survival time, dose: 50.0 mg/kg/injection, schedule: Q04DX003 (ip), vehicle: saline with Tween-80): 104 % of control; T/C [4]: 93 % of control and 112 % of control; T/C [7]: 98 % of control

Q: What does the source list for `O=C(Nc1ccc(Cl)c(Cl)c1)c1ccc(Cl)c(Cl)c1`?
A: T/C (endpoint: mean survival time, dose: 100.0 mg/kg/injection, schedule: Q04DX002 (ip), vehicle: saline with Tween-80): 95 % of control; T/C (endpoint: mean survival time, dose: 400.0 mg/kg/injection, schedule: Q04DX002 (ip), vehicle: saline with Tween-80): 91 % of control

Q: With `COc1cccc(C(O)c2ccncc2)c1OC` (stereo not given) as the molecule, how does the T/C (endpoint: mean survival time, dose: 25.0 mg/kg/injection, schedule: Q01DX009 (ip), vehicle: water) read?
A: 96 % of control

Q: And the T/C (endpoint: mean survival time, dose: 50.0 mg/kg/injection, schedule: Q01DX009 (ip), vehicle: water)?
A: 105 % of control

Q: What about the T/C (endpoint: mean survival time, dose: 100.0 mg/kg/injection, schedule: Q01DX009 (ip), vehicle: water) of the same molecule?
A: 98 % of control

Q: And the T/C (endpoint: mean survival time, dose: 200.0 mg/kg/injection, schedule: Q01DX009 (ip), vehicle: water)?
A: 93 % of control

Q: And the T/C (endpoint: mean survival time, dose: 400.0 mg/kg/injection, schedule: Q01DX009 (ip), vehicle: water)?
A: 91 % of control

Q: Which results are given for `Cc1cc(N)c(S(N)(=O)=O)c([N+](=O)[O-])c1`?
A: T/C [8]: 100 % of control; T/C [9]: 97 % of control; T/C [10]: 94 % of control

Q: Which T/C [8] does the source give for `Cc1ccc(C(=S)NC(=O)Nc2ccccc2)cc1` here?
A: 97 % of control

Q: And the T/C [9]?
A: 94 % of control

Q: What about the T/C [10] of the same molecule?
A: 97 % of control

Q: What does the source list for `COCCCNC(=O)C1=CCCN(C)C1`?
A: T/C [1]: 95 % of control; T/C [2]: 96 % of control; T/C [3]: 94 % of control

Q: How did the T/C (endpoint: mean survival time, dose: 75.0 mg/kg/injection, schedule: Q01DX001 (ip), vehicle: saline) turn out when `CCCCCC/C=N\N=C(N)N` was run?
A: 103 % of control

Q: Which T/C (endpoint: mean survival time, dose: 100.0 mg/kg/injection, schedule: Q01DX009 (ip), vehicle: saline with Tween-80) does the source give for `C=CCCCCCCCCC(=O)NCCCC(OCC)OCC` here?
A: 100 % of control

Q: What about the T/C (endpoint: mean survival time, dose: 200.0 mg/kg/injection, schedule: Q01DX009 (ip), vehicle: saline with Tween-80) of the same molecule?
A: 100 % of control

Q: What about the T/C (endpoint: mean survival time, dose: 400.0 mg/kg/injection, schedule: Q01DX009 (ip), vehicle: saline with Tween-80) of the same molecule?
A: 98 % of control
